Like-named read-outs stand apart in the source and are kept apart here. Marks after values point to notes of the source that are not given here.
How the values were obtained:
[1] = format: in vitro ADME, murine; details: 1 h
Method: (§1) To evaluate the label’s stability, 10 μL (0.25 μg) of radiolabeled conjugates was incubated with 300× molar excess of cysteine or with PBS for 1 h at room temperature. The test was run in triplicate. The release of free technetium-99m was controlled by using iTLC and radio-HPLC analysis. The stability in serum was analyzed by mixing the radioconjugates (0.25 μg in 10 μL) with murine serum or PBS (40 μL) as a control. The samples were incubated for 1 h at 37 °C and analyzed by iTLC. The experiment was performed in triplicate. The octanol–water distribution coefficient (Log D) was determined experimentally by the addition of 100 pmol of the radiolabeled tracer to an Eppendorf tube containing PBS (500 μL) and n-octanol (500 μL), pH ∼ 7.4. The solution was vortexed and centrifuged, and aliquots (50 μL) from each phase were collected and measured using a gamma counter. The experiment was performed in triplicate.

physchem = format: physicochemical; details: pH 7.4
Method: as §1

PC3-pip cells [2] = experiment: in vitro binding specificity test; format: cell-based; details: 1 h, 37 °C
Method: For the in vitro binding specificity test, approximately 8 × 10^5 PC3-pip cells per well were seeded 24 h before the experiment. […] Technetium-99m-labeled tracers were added to each well to reach a concentration of 2 nM. After 1 h of incubation at 37 °C, cells were washed with PBS solution, detached, and collected. Cell-associated activity was measured using a gamma counter and presented as the percentage of added activity.

PSMA = molecular target: T1, PSMA (Homo sapiens, UniProt Q04609); experiment: binding kinetics in real time on living PC3-pip cells (LigandTracer Yellow)
T1 construct: expressed in transfected cells; host or cells: PC3-pip (PSMA-transfected PC-3 prostate carcinoma cells), from Prof; Martin G. Pomper, Johns Hopkins University
T1 sequence (Q04609 whole entry): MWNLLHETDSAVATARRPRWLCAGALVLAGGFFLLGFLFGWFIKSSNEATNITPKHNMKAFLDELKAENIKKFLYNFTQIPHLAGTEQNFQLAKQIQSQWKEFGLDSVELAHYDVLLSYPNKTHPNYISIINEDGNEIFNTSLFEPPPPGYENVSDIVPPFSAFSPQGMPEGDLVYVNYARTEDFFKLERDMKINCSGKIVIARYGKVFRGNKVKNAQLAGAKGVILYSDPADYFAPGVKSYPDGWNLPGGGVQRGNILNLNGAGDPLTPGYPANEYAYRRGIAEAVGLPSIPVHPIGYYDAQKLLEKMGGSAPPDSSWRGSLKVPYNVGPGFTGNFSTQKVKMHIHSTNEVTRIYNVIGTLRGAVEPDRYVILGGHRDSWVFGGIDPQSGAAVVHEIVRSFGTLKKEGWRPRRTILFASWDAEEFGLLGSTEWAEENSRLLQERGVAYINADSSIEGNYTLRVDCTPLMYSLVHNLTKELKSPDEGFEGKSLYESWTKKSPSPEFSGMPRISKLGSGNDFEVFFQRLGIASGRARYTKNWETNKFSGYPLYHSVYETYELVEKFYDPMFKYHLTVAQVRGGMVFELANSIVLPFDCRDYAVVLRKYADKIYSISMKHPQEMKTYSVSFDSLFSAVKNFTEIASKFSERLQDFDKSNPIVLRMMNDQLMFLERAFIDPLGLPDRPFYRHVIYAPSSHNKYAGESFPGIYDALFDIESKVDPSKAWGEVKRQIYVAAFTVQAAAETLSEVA
Method: The binding kinetics of technetium-99m-labeled BQ0413, BQ0500, and BQ0501 were determined in PC3-pip cells in real-time using LigandTracer Yellow (Ridgeview Instruments AB, Uppsala, Sweden). The activity binding was recorded with 5 nM radiolabeled tracers for 150 min. After the binding kinetics were measured, the medium containing the labeled tracer was replaced with fresh medium, and the dissociation was monitored over 7 h. The association rate (k a) and the dissociation rate (k d) were computed using a 1:2 kinetic binding model in TraceDrawer software (Ridgeview Instruments AB, Uppsala, Sweden), and the equilibrium dissociation constant K D was calculated.

PC3-pip cells [3] = experiment: cellular processing (membrane-bound / internalized activity); format: cell-based; details: 2 nM, continuous incubation, after 8 h
Method: To evaluate cellular processing of technetium-99m-labeled BQ0500 and BQ0501, PC3-pip cells were incubated with the radiolabeled tracer (2 nM), and at 1, 2, 4, and 8 h of continuous incubation, the membrane-bound and internalized fractions were collected as previously described using 4 M urea solution in 0.2 M glycine buffer (pH 2) to collect membrane-bound fraction and 1 N solution of NaOH to collect the internalized fraction. The activity in the samples was measured, and the percentage of membrane-bound and internalized activity was calculated. The experiments were performed in triplicate.

PC3-pip xenografts = experiment: biodistribution and tumor targeting in PC3-pip tumor-bearing mice; format: in vivo
Excerpt: The injected masses for the in vivo experiments were chosen based on the findings for [^99mTc]-Tc-BQ0413: to study the general biodistribution of radiolabeled tracers in normal mice (NMRI), 40 pmol of tracer was used to avoid blocking of PSMA-mediated uptake in kidneys and salivary glands, to study tumor targeting, 5 nmol of tracer was used to decrease uptake in PSMA-expressing organs.
PSMA-expressing PCa xenografts were implanted in BALB/c nu/nu mice by subcutaneous injection of the PC3-pip cell suspension in PBS (10^7 cells/animal in 100 μL). The average animal weight in the experiment was 18 ± 2 g. The average tumor weight was 0.4 ± 0.2 g. For in vivo specificity control, 10^7 cells/animal PSMA-negative PC-3 cells were implanted. The average animal weight was 18 ± 1 g. The average tumor weight was 0.1 ± 0.1 g. Four mice per data point were used in the in vivo experiments.
For tumor-bearing mice, each mouse was intravenously injected with 5 nmol of [^99mTc]-Tc-BQ0413, [^99mTc]-Tc-BQ0500, and [^99mTc]-Tc-BQ0501 (60 kBq; the mass of the injected compound was adjusted with an unlabeled tracer). The mice were euthanized after lethal intraperitoneal injection of ketamine/xylazine, followed by exsanguination 1 and 3 h pi, similarly to the procedure described above.

[4] = PC3-pip tumor-bearing mice, 5 nmol/mouse iv, 1 h pi
[5] = PC3-pip tumor-bearing mice, 5 nmol/mouse iv, 3 h pi
[6] = PC3-pip tumor-bearing mice, 5 nmol/mouse iv, 3 h pi, listed as [99mTc]Tc-BQ0501

With CC(=O)NC(CCCCNC(=O)CNC(=O)C(CO)NC(=O)C(CO)NC(=O)C(CO)NC(=O)CS)C(=O)NCCCCCCCC(=O)NC(Cc1ccc(O)cc1)C(=O)NC(Cc1ccc2ccccc2c1)C(=O)NCCCCC(NC(=O)NC(CCC(=O)O)C(=O)O)C(=O)O (centres unmarked) [[^99mTc]Tc-BQ0501, metal not drawn] the “intact tracer in PBS” value ([1]; PBS control, 37 °C, n = 3) was 97.4 ± 0.9%, the “intact tracer in murine serum” value ([1]; mouse, 5 µg/mL) was 98.7 ± 0.6% and the logD (physchem) was -2.4 ± 0.1. For the same molecule, the “activity uptake by PC3-pip cells” value (PC3-pip cells [2]; 2 nM tracer) was 62 ± 7 % of added activity, the “activity uptake by PC3-pip cells after presaturation with PSMA-11” value (PC3-pip cells [2]; 250-fold excess of nonlabeled PSMA-11, 2 nM tracer) was “significantly (p < 0.0001) decreased” and the “B max1 (binding maximum)” value (PSMA; 5 nM tracer, 1:2 model (1:1 for BQ0413)) was 492 CPS. The Kd (PSMA; 5 nM tracer, 1:2 model (1:1 for BQ0413), read-out: K D1) was 0.474 nM, the kon (PSMA; 5 nM tracer, 1:2 model (1:1 for BQ0413), read-out: k a1 (association rate)) was 27000 M⁻¹ s⁻¹ and the koff (PSMA; 5 nM tracer, 1:2 model (1:1 for BQ0413), read-out: k d1 (dissociation rate)) was 1.2e-05 s⁻¹. For the same molecule, the “B max2 (binding maximum)” value (PSMA; 5 nM tracer, 1:2 model, second interaction) was 272 CPS, the Kd (PSMA; 5 nM tracer, 1:2 model, second interaction, read-out: K D2) was 3.6 nM and the kon (PSMA; 5 nM tracer, 1:2 model, second interaction, read-out: k a2 (association rate)) was 49000 M⁻¹ s⁻¹. For the same molecule, the koff (PSMA; 5 nM tracer, 1:2 model, second interaction, read-out: k d2 (dissociation rate)) was 0.00016 s⁻¹, the “affinity compromised in comparison with [99mTc]Tc-BQ0413” value (PSMA; PC3-pip cells) was 3–5 fold and the Kd (PSMA; as rounded in comparison table, read-out: K D1) was 0.5 nM. The Kd (PSMA; as rounded in comparison table, read-out: K D2) was 3.6 nM, the “maximum of internalized activity” value (PC3-pip cells [3]) was 42–43 % of cell-associated activity and the activity in carcass (PC3-pip xenografts; [4]) was 8 ± 2 ^b %IA/sample. For the same molecule, the “activity in intestines with content” value (PC3-pip xenografts; [4]) was 9 ± 1 ^b ^e %IA/sample, the “activity uptake in blood” value (PC3-pip xenografts; [4]) was 1.6 ± 0.5 ^b %IA/g and the “activity uptake in bone” value (PC3-pip xenografts; [4]) was 0.4 ± 0.1 ^b ^e %IA/g. For the same molecule, the “activity uptake in kidney” value (PC3-pip xenografts; [4]) was 21 ± 6 ^b %IA/g, the “activity uptake in liver” value (PC3-pip xenografts; [4]) was 1.8 ± 0.7 ^b %IA/g and the “activity uptake in lung” value (PC3-pip xenografts; [4]) was 1.6 ± 0.4 ^b %IA/g. The “activity uptake in muscle” value (PC3-pip xenografts; [4]) was 0.3 ± 0.1 ^b %IA/g, the “activity uptake in pancreas” value (PC3-pip xenografts; [4]) was 0.45 ± 0.05 ^b %IA/g and the “activity uptake in salivary gland” value (PC3-pip xenografts; [4]) was 0.6 ± 0.2 ^b ^, ^e %IA/g. For the same molecule, the “activity uptake in small intestines” value (PC3-pip xenografts; [4]) was 1.4 ± 0.6 ^b ^e %IA/g, the “activity uptake in spleen” value (PC3-pip xenografts; [4]) was 2.4 ± 0.5 ^b %IA/g and the “activity uptake in stomach” value (PC3-pip xenografts; [4]) was 0.6 ± 0.2 ^b ^e %IA/g. The “activity uptake in tumor” value (PC3-pip xenografts; [4]) was 27 ± 7 %IA/g, the tumor-to-blood ratio (PC3-pip xenografts; [4]) was 19 ± 8 ^b and the tumor-to-bone ratio (PC3-pip xenografts; [4]) was 62 ± 18 ^b ^, ^e. The tumor-to-kidney ratio (PC3-pip xenografts; [4]) was 1.3 ± 0.5 ^b, the tumor-to-liver ratio (PC3-pip xenografts; [4]) was 17 ± 7 ^b and the tumor-to-lung ratio (PC3-pip xenografts; [4]) was 17 ± 6 ^b. The tumor-to-muscle ratio (PC3-pip xenografts; [4]) was 86 ± 34 ^b, the tumor-to-pancreas ratio (PC3-pip xenografts; [4]) was 62 ± 24 ^b and the tumor-to-salivary gland ratio (PC3-pip xenografts; [4]) was 47 ± 19 ^b ^, ^e. For the same molecule, the tumor-to-small intestines ratio (PC3-pip xenografts; [4]) was 22 ± 11 ^b, the tumor-to-spleen ratio (PC3-pip xenografts; [4]) was 12 ± 5 ^b and the tumor-to-stomach ratio (PC3-pip xenografts; [4]) was 46 ± 18 ^b ^, ^e. For the same molecule, the activity in carcass (PC3-pip xenografts; [5]) was 3 ± 1 %IA/sample, the “activity in intestines with content” value (PC3-pip xenografts; [5]) was 11.0 ± 0.5 ^e %IA/sample and the “activity uptake in blood” value (PC3-pip xenografts; [5]) was 0.14 ± 0.07 %IA/g. The “activity uptake in bone” value (PC3-pip xenografts; [5]) was 0.07 ± 0.03 ^e %IA/g, the “activity uptake in kidney” value (PC3-pip xenografts; [5]) was 4 ± 2 ^e %IA/g and the “activity uptake in liver” value (PC3-pip xenografts; [5]) was 0.18 ± 0.06 %IA/g. For the same molecule, the “activity uptake in lung” value (PC3-pip xenografts; [5]) was 0.21 ± 0.07 %IA/g, the “activity uptake in muscle” value (PC3-pip xenografts; [5]) was 0.08 ± 0.04 %IA/g and the “activity uptake in pancreas” value (PC3-pip xenografts; [5]) was 0.1 ± 0.1 %IA/g. For the same molecule, the “activity uptake in salivary gland” value (PC3-pip xenografts; [5]) was 0.14 ± 0.06 ^e %IA/g, the “activity uptake in small intestines” value (PC3-pip xenografts; [5]) was 0.17 ± 0.03 %IA/g and the “activity uptake in spleen” value (PC3-pip xenografts; [5]) was 0.3 ± 0.2 %IA/g. For the same molecule, the “activity uptake in stomach” value (PC3-pip xenografts; [5]) was 0.14 ± 0.06 %IA/g, the tumor-to-bone ratio (PC3-pip xenografts; [5]) was 515 ± 113 ^e and the tumor-to-kidney ratio (PC3-pip xenografts; [5]) was 10 ± 2 ^e. The tumor-to-liver ratio (PC3-pip xenografts; [5]) was 222 ± 89 ^e, the tumor-to-lung ratio (PC3-pip xenografts; [5]) was 178 ± 61 ^e and the tumor-to-muscle ratio (PC3-pip xenografts; [5]) was 504 ± 195. The tumor-to-pancreas ratio (PC3-pip xenografts; [5]) was 463 ± 135 ^e, the tumor-to-salivary gland ratio (PC3-pip xenografts; [5]) was 302 ± 146 ^e and the tumor-to-small intestines ratio (PC3-pip xenografts; [5]) was 209 ± 46. For the same molecule, the tumor-to-spleen ratio (PC3-pip xenografts; [5]) was 121 ± 47 ^e, the tumor-to-stomach ratio (PC3-pip xenografts; [5]) was 287 ± 102 ^e and the activity in carcass (PC3-pip xenografts; [6]) was 3±1 %IA/sample. For the same molecule, the “activity in intestines with content” value (PC3-pip xenografts; [6]) was 11.0±0.5 %IA/sample, the “activity uptake in blood” value (PC3-pip xenografts; [6]) was 0.14±0.07 %IA/g and the “activity uptake in bone” value (PC3-pip xenografts; [6]) was 0.07±0.03 %IA/g. For the same molecule, the “activity uptake in kidney” value (PC3-pip xenografts; [6]) was 4±2 %IA/g, the “activity uptake in liver” value (PC3-pip xenografts; [6]) was 0.18±0.06 %IA/g and the “activity uptake in lung” value (PC3-pip xenografts; [6]) was 0.21±0.07 %IA/g. The “activity uptake in muscle” value (PC3-pip xenografts; [6]) was 0.08±0.04 %IA/g, the “activity uptake in pancreas” value (PC3-pip xenografts; [6]) was 0.1±0.1 %IA/g and the “activity uptake in salivary gland” value (PC3-pip xenografts; [6]) was 0.14±0.06 %IA/g. For the same molecule, the “activity uptake in small intestines” value (PC3-pip xenografts; [6]) was 0.17±0.03 %IA/g, the “activity uptake in spleen” value (PC3-pip xenografts; [6]) was 0.3±0.2 %IA/g and the “activity uptake in stomach” value (PC3-pip xenografts; [6]) was 0.14±0.06 %IA/g. For the same molecule, the “activity uptake in tumor” value (PC3-pip xenografts; [6]) was 35±4 %IA/g and the excretion pathway (PC3-pip xenografts; PC3-pip xenografts) was “predominantly renal”.

From article PMC12519282, “Reduction of Negative Charge in Mercaptoacetyl-Based Chelators Influences the Biodistribution of Prostate-Specific Membrane Antigen-Targeting Pseudopeptides Labeled with Technetium-99m” (ACS Pharmacology & Translational Science, 2025)
